From patent US12121525B2, “Methods for treating GI syndrome and graft versus host disease” (Sloan Kettering Institute for Cancer Research, priority 2007, dated 2024)

Experiments:
ASMase = target: T1, ASMase (Homo sapiens, UniProt P17405); assay: ASMase activity assay in Jurkat cells stimulated with UV-C or anti-Fas; format: cell-based
T1 construct: Jurkat cells were lysed in PBS containing 0.2% Triton X-100; endogenous in cells; host or cells: Jurkat T lymphocytes (clone E6-1, ATCC)
T1 sequence (P17405 47-631): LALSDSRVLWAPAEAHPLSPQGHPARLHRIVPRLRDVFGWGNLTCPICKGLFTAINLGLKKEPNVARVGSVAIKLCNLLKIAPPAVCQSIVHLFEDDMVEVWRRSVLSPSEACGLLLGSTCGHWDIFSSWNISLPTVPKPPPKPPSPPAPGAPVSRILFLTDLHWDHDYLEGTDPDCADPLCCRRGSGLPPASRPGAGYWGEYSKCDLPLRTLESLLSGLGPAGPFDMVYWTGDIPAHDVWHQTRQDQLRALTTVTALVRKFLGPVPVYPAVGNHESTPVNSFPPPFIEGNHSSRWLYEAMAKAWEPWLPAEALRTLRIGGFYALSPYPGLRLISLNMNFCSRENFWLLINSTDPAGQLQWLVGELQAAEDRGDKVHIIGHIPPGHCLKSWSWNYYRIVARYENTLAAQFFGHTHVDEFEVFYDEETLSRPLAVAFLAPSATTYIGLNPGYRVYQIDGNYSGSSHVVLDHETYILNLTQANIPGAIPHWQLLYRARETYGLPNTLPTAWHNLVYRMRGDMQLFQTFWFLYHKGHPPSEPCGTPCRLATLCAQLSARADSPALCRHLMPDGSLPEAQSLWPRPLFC
Procedure: Others have shown that ceramide is required for Fas-induced apoptosis in some cell types. We looked at the requirement for UV-C-induced ceramide generation in initiating the apoptotic response. By UV-C is meant ultraviolet radiation in the 100-280 nm wavelength range. In these studies imipramine was used to inhibit ASMase-activity. Pre-treatment of Jurkat cells with […] imipramine for 30 min decreased baseline ASMase activity, abrogated UV-C and Fas-induced ASMase activation at 1 min post stimulation and ceramide generation at 2 minutes, and attenuated apoptosis at 4 hours post-stimulation. […] Grassme et al., J Biol Chem. 2001, 276:20589, incorporated herein by reference. […]
ASMase activity was measured using a fluorescence-based, high-performance liquid chromatographic (HPLC) assay^98. […] ASMase activity was measured by incubating an equal volume of lysate in assay buffer [500 μM BODIPY-C12 sphingomyelin (Molecular Probes, Eugene OR), 0.1 mM ZnCl2, 0.1 M sodium acetate pH 5.0 and 0.6% Triton X-100] for 60 min at 37° C. […] Fluorescence was quantified using a Waters 474 (Waters Corp.) fluorescence detector set to excitation and emission wavelengths of 505 and 540 nm, respectively. The amount of product generated was calculated using a regression equation derived from a standard curve established for known amounts of BODIPY-C12 ceramide standard. […]

Jurkat cells [1] = assay: Ceramide generation in Jurkat cells (diacylglycerol kinase assay); format: cell-based, human; conditions: 50 mM imipramine 30 min; 2 minutes post UV-C or Fas stimulation
Procedure: (§1) Others have shown that ceramide is required for Fas-induced apoptosis in some cell types. We looked at the requirement for UV-C-induced ceramide generation in initiating the apoptotic response. By UV-C is meant ultraviolet radiation in the 100-280 nm wavelength range. In these studies imipramine was used to inhibit ASMase-activity. Pre-treatment of Jurkat cells with […] imipramine for 30 min decreased baseline ASMase activity, abrogated UV-C and Fas-induced ASMase activation at 1 min post stimulation and ceramide generation at 2 minutes, and attenuated apoptosis at 4 hours post-stimulation. […] Grassme et al., J Biol Chem. 2001, 276:20589, incorporated herein by reference.
Jurkat cells, stimulated with UV-C or CH-11, were incubated for the indicated times at 37° C. Stimulation was terminated by the addition of 2 ml of chloroform:methanol:HCl (100:100:1,v/v/v), and ceramide was quantified by the diacyglycerol kinase assay, as described^97.

Jurkat cells [2] = assay: UV-C- and anti-Fas-induced apoptosis in Jurkat cells; format: cell-based, human; conditions: 50 mM imipramine 30 min; 4 hours post UV-C or Fas stimulation
Procedure: as §1
H. Grassme, H. Schwarz, and E. Gulbins, Biochem Biophys Res Commun 284 (4), 1016 (2001), incorporated herein by reference. […] Importantly, we also observed that anti-ceramide and nystatin pretreatment yielded an approximate 1 log increase in clonogenic cell survival compared to vehicle controls after 5-50 J/m^2 UV-C or anti-Fas stimulation. […]
Apoptosis was assessed in vitro by two different techniques. […] Morphologic changes of nuclear apoptosis including chromatin condensation, segmentation and compaction along the periphery of the nucleus or the appearance of apoptotic bodies were quantified using an Axiovert S-100 Zeiss fluorescence microscope as previously described ^33. […]

With `CN(C)CCCN1c2ccccc2CCc2ccccc21` [imipramine] the “UV-C and Fas-induced ASMase activation” value (ASMase; 50 mM imipramine 30 min, 1 min post stimulation) was “abrogated”, the “baseline ASMase activity” value (ASMase; pre-treatment with 50 mM imipramine for 30 min) was “decreased” and the ceramide generation (Jurkat cells [1]) was “abrogated”. For the same compound, the apoptosis (Jurkat cells [2]) was “attenuated”.
